What all share (test): NCI tumour cell line growth inhibition, 48 h
The test system of assay [1] is UACC-62 melanoma.
The subject of assay [2] is MCF7 breast.
In assay [3] the test system is HOP-62 NSCLC.
Assay [4] relates to MDA-MB-231 breast.
Assay [5] deals with M14 melanoma.
Assay [6] has as its system NCI/ADR-RES ovarian.
In assay [7] the test system is HS 578T breast.
Assay [8] relates to SK-OV-3 ovarian.
The subject of assay [9] is HL-60(TB) leukemia.
The test system of assay [10] is MDA-MB-435.
Assay [11] relates to T-47D breast.
The test system of assay [12] is ACHN renal.
For assay [13], the system named is OVCAR-8 ovarian.
Assay [14] relates to SK-MEL-5 melanoma.
Assay [15] concerns HCC-2998 colon.
In assay [16] the test system is K-562 leukemia.
In assay [17] the test system is SF-295 CNS.
For assay [18], the system named is LOX IMVI melanoma.
For assay [19], the system named is EKVX NSCLC.
Assay [20] deals with HCT-15 colon.

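Exposure lasted 48 hours, with cells grown in 96-well plates and compounds tested at five concentrations. Definition used: TGI = concentration required for complete inhibition of growth.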

For `C=C(CCC/C(C)=C/C=C/[C@]1(C)CCCc2ccoc21)CC(=O)O`, the TGI in assay [1], in [2], in assay [3], in [4], in assay [5] and in assay [6] was > 100 µM each time. Further, the TGI in [7], in assay [8], in [9], in assay [10], in [11] and in assay [12] was > 100 µM in each case. Besides, the TGI in assay [13], in assay [14], in assay [15], in [16], in assay [17] and in [18] was > 100 µM throughout. Also, the TGI in assay [19] and in assay [20] was > 100 µM each time.

In the case of `C=C1C(=O)C[C@H]2C(=C)C(=O)O[C@@H]2C2C1CC[C@@]2(C)O` (stereo not given in full), the TGI in [1] is 31.2 µM; in [2] it was 36.1 µM; in assay [3], > 100 µM; in assay [4] it was 75.2 µM; in [5], 33.5 µM; in [6] it was 64.2 µM. Besides, the TGI in assay [7] is > 100 µM; in assay [8] it was > 100 µM; in assay [9] it was > 100 µM; in assay [10], > 100 µM; in assay [11], 68.8 µM; in assay [12], 25 µM. Also, the TGI is > 100 µM in assay [13]; > 100 µM in assay [14]; 38.1 µM in assay [15]; > 100 µM in assay [16]; > 100 µM in assay [17]; 68.8 µM in assay [18]. The results for the TGI in [19] and in [20] were > 100 µM and 69.2 µM, respectively.

As to `CC1(c2cccs2)CC(c2cccs2)=C(C#N)C(=C(C#N)C#N)N1` (stereo not given), the TGI was 29.6 µM in assay [1]; 39.1 µM in [2]; 39.7 µM in assay [3]; 50.6 µM in assay [4]; 40.5 µM in [5]; 49.5 µM in assay [6]. Also, the TGI stood at 69.5 µM in assay [7]; 37.1 µM in assay [8]; 33.1 µM in assay [9]; 31.8 µM in assay [10]; 39.4 µM in assay [11]; 32.1 µM in assay [12]. For the same molecule, the TGI in assay [13] was 42.9 µM; in assay [14] it was 28.8 µM; in assay [15], 31.1 µM; in assay [16] it was > 100 µM; in assay [17] it was 32.6 µM; in assay [18], 32.4 µM. Besides, the TGI in assay [19] worked out at 33.6 µM; in assay [20], 33.8 µM.

In the case of `O=C(O)CC(CC(=O)O)C(=O)O`, the TGI in [1], in [2], in assay [3], in assay [4], in assay [5] and in assay [6] was > 100 µM throughout. The TGI in assay [7], in assay [8], in assay [9], in assay [10], in assay [11] and in assay [12] was > 100 µM each time. Also, the TGI in [13], in assay [14], in assay [15], in assay [16], in assay [17] and in assay [18] was > 100 µM in each case. Also, the TGI in [19] and in assay [20] was > 100 µM in each case.

`COCC1OC(Sc2ccccc2)C(O)C(OC)C1OC` (stereo not given): the TGI in assay [1], in [2], in assay [3], in assay [4], in assay [5] and in [6] was > 100 µM throughout. In addition, the TGI in [7], in assay [8], in assay [9], in assay [10], in assay [11] and in [12] was > 100 µM each time. Further, the TGI in assay [13], in assay [14], in [15], in assay [16], in [17] and in [18] was > 100 µM in each case. In addition, the TGI in assay [19] and in assay [20] was > 100 µM each time.

Turning to `O=C(O)CC1NC(/C(=C/c2ccccc2)NC(=O)c2ccccc2)OC1=O` (stereo not given), the TGI in assay [1] is 57.9 µM; in [2], > 100 µM; in [3], 37.2 µM; in assay [4], 69.7 µM; in assay [5], 35.2 µM; in assay [6], 56.4 µM. Moreover, the TGI in [7] is > 100 µM; in assay [8] it was > 100 µM; in [9] it was 38 µM; in assay [10], 67 µM; in assay [11] it was > 100 µM; in assay [12], > 100 µM. The TGI in assay [13] is 66.5 µM; in assay [14], 32.3 µM; in assay [15], > 100 µM; in assay [16] it was 56 µM; in assay [17] it was > 100 µM; in [18], 36 µM. For the same molecule, the TGI in [19] and in [20] was > 100 µM in each case.

For the molecule `Nc1ccc(Oc2ccc(C34CC5CC6C3CC3CC4C(C5)C6(c4ccc(Oc5ccc(N)cc5)cc4)C3)cc2)cc1`, the TGI in [1] is > 87.9 µM; in assay [2], > 100 µM; in assay [3], 53.6 µM; in [4] it was 65.7 µM; in [5], 21.4 µM; in assay [6], > 100 µM. The TGI was > 67.5 µM in assay [7]; 53.9 µM in assay [8]; 22 µM in [9]; 19 µM in assay [10]; > 81.5 µM in [11]; > 100 µM in assay [12]. Also, the TGI in assay [13] was > 100 µM; in assay [14], 5.27 µM; in assay [15], 38.9 µM; in [16], 40.5 µM; in assay [17], 81.4 µM; in assay [18] it was > 76.1 µM. In addition, the results for the TGI in [19] and in assay [20] were > 77.8 µM and > 100 µM, respectively.

The values above are taken from PubChem BioAssay (NCI).
